In patent US20240376148A1, “MEDICAMENT FOR INHIBITING DIETARY OBESITY AND POLYPEPTIDE USED THEREFOR” (INSTITUTE OF ZOOLOGY, CHINESE ACADEMY OF SCIENCES, priority 2022, published 2024):

Experiments:
fecal flora = assay: 16s amplicon sequencing of fecal flora of SPF mice; assay type: in vivo; conditions: SPF mice feces
Description: At this time, in order to further confirm whether the reason for the weight loss of the SPF mice was related to the change of the ecological structure of the intestinal flora, the feces of mice in NC, HFD and D3 groups collected in the previous SPF mice experiment were analyzed by 16 s amplicon sequencing. sequencing method (reference: Quan, LH, et al. Myristoleic acid produced by enterococci reduces obesity through brown adipose tissue activation. Gut 69, 1239-1247 (2020).) was used to analyze the fecal flora of mice.

[1] = GF mice experiment (high-fat diet); assay type: in vivo, Germ-free (GF) C57B1/6 mice
Excerpt: To further determine the relative contribution of the microbiota to the anti-obesity effects of HD, D3 was chosen for GF mice experiment.
Germ-free (GF) C57B1/6 mice were used in the GF mice experiment, kept in a germ-free isolator, and their GF status was verified by fecal PCR every month. At the beginning of the experiment, germ-free (GF) C57B1/6 mice were 4 weeks old, each weighed 14±1 g. They were raised in a room with suitable temperature and humidity control, and the light/dark cycle was 12 hours, free diet and drinking water, and fed with standard laboratory feed (growth and reproduction feed, SPFSLFZ003, product of SPF (Beijing) Experimental Animal Technology Co., Ltd.), after one week of adaptation, they were randomly assigned to each cage, 4-6 mice per cage. A total of 3 treatments were set up, each with 1 cage, and each treatment was subjected to different feeding treatments, specifically as follows:
NC group (i.e. normal diet group): fed with standard laboratory feed (also known as growth and reproduction feed, SPFSLFZ003), free diet and drinking water for 8 weeks.
HFD group (i.e. high-fat diet group): fed with high-fat diet, the high-fat diet used was rodent feed (containing 60 kcal % fat, D12492), free diet and drinking water for 8 weeks.
D3 group (i.e. high-fat diet+D3 medicine intragastric administration group): fed with high-fat diet, free diet and drinking water. Intragastrically administrated with D3 medicine, 0.75 mg-3 mg/Kg body weight, 0.2 ml, once/day for 8 weeks.
Food intake and body weight were monitored weekly.
After the experiment on GF mice, the mice were killed by cervical dislocation. The heart, liver, spleen, lung, kidney, blood, ileum, cecum, and colon were harvested, immediately placed in liquid nitrogen, and stored at −80° C. for further analysis. Precisely dissected and subcutaneous and visceral fat deposits were weighed.

Sequence: RTRYCRTGR [D3]
- abundance of Bacteroides and A. muciniphila (LEfSc analysis) (fecal flora): significant increase
- abundance of Prevotella, Desulfovibrio and Lawsonia (LEfSc analysis) (fecal flora): significant decrease
- fecal flora (diversity analysis and PCOA) vs HFD group (fecal flora): significantly different from that of the HFD group
- subcutaneous and visceral fat weight (inguinal subcutaneous, epididymis, perinephric) vs HFD group ([1]; 8 weeks): significantly lower than that of the HFD group
- weekly feed intake vs control HFD group ([1]; after 3-4 weeks): significant gap
- body weight compared with the HFD group ([1]; intragastric 0.75 mg-3 mg/Kg once/day, 8 weeks): decreased significantly
